Laboratory results as given in patent US8952169B2 (Genentech, Inc., priority 2012, dated 2015).

Target: hNav1.7 (Homo sapiens (Human), UniProt Q15858)
Test: Tritiated aryl sulfonamide binding to membranes from cells expressing hNav1.7 and the β1 subunit (competitive binding)
Conditions: membranes with hNav1.7 and β1 subunit; [3H]compound displacement, 18 h, room temperature; read-out: NaV1.7 395 Memb Binding (IC50)
Protocol: Tritiated Aryl Sulfonamide Binding to Membranes Isolated from Cells that Heterologously Express hNav1.7 and the β1 Subunit
Preparation of membranes containing recombinantly expressed sodium channels: Frozen recombinant cell pellets were thawed on ice and diluted to 4 times the cell pellet weight with ice cold 50 mM Tris HCl, pH 7.4 buffer. The cell suspensions were homogenized on ice using a motorized glass dounce homogeniser. Homogenates were further diluted 8.4 times with ice cold 50 mM Tris HCl, pH 7.4 buffer and then centrifuged at 200×g at 4° C. for 15 min. The supernatants were collected and centrifuged at 10000×g at 4° C. for 50 min. The pellets were then re-suspended in 100 mM NaCl, 20 mM Tris HCl, pH 7.4 buffer containing 1% v/v protease inhibitors (Calbiochem) and re-homogenized on ice. The homogenized membranes were then processed through a syringe equipped with a 26 gauge needle. Protein concentrations were determined by Bradford Assay and the membranes were stored at −80° C.
Radioligand Binding Studies: Saturation experiments. A representative compound of formula (I) was tritiated. Three tritiums were incorporated in place of methyl hydrogens to generate [^3H]compound. Binding of this radioligand was preformed in 5 mL borosilicate glass test tubes at room temperature. Binding was initiated by adding membranes to increasing concentrations of [^3H]compound in 100 mM NaCl, 20 mM Tris HCl, pH 7.4 buffer containing 0.01% w/v bovine serum albumin (BSA) for 18 h. Non-specific binding was determined in the presence of 1 μM unlabelled compound. After 18 h, the reactants were filtered through GF/C glass fiber filters presoaked in 0.5% w/v polyethylene imine. […] [^3H]compound bound to filters was quantified by liquid scintillation counting.
Competitive binding experiments. Binding reactions were preformed in 96-well polypropylene plates at room temperature for 18 h. In 360 μL, membranes were incubated with 100 μM [^3H]compound and increasing concentrations of Test Compound. Non-specific binding was defined in the presence of 1 μM unlabelled compound. Reactions were transferred and filtered through 96-well glass fiber/C filter plates presoaked with 0.5% polyethylene imine. The filtered reactions were washed 5 times with 200 L ice cold buffer containing 0.25% BSA. Bound radioactivity was determined by liquid scintillation counting.
Data Analysis: For saturation experiments, non-specific binding was subtracted from total binding to provide specific binding and these values were recalculated in terms of pmol ligand bound per mg protein. Saturation curves were constructed and dissociation constants were calculated using the single site ligand binding model: Beq=(Bmax*X)/(X+Kd), where Beq is the amount of ligand bound at equilibrium, Bmax is the maximum receptor density, Kd is the dissociation constant for the ligand, and X is the free ligand concentration.

hNav1.7, sequence (Q15858 whole entry, looked up): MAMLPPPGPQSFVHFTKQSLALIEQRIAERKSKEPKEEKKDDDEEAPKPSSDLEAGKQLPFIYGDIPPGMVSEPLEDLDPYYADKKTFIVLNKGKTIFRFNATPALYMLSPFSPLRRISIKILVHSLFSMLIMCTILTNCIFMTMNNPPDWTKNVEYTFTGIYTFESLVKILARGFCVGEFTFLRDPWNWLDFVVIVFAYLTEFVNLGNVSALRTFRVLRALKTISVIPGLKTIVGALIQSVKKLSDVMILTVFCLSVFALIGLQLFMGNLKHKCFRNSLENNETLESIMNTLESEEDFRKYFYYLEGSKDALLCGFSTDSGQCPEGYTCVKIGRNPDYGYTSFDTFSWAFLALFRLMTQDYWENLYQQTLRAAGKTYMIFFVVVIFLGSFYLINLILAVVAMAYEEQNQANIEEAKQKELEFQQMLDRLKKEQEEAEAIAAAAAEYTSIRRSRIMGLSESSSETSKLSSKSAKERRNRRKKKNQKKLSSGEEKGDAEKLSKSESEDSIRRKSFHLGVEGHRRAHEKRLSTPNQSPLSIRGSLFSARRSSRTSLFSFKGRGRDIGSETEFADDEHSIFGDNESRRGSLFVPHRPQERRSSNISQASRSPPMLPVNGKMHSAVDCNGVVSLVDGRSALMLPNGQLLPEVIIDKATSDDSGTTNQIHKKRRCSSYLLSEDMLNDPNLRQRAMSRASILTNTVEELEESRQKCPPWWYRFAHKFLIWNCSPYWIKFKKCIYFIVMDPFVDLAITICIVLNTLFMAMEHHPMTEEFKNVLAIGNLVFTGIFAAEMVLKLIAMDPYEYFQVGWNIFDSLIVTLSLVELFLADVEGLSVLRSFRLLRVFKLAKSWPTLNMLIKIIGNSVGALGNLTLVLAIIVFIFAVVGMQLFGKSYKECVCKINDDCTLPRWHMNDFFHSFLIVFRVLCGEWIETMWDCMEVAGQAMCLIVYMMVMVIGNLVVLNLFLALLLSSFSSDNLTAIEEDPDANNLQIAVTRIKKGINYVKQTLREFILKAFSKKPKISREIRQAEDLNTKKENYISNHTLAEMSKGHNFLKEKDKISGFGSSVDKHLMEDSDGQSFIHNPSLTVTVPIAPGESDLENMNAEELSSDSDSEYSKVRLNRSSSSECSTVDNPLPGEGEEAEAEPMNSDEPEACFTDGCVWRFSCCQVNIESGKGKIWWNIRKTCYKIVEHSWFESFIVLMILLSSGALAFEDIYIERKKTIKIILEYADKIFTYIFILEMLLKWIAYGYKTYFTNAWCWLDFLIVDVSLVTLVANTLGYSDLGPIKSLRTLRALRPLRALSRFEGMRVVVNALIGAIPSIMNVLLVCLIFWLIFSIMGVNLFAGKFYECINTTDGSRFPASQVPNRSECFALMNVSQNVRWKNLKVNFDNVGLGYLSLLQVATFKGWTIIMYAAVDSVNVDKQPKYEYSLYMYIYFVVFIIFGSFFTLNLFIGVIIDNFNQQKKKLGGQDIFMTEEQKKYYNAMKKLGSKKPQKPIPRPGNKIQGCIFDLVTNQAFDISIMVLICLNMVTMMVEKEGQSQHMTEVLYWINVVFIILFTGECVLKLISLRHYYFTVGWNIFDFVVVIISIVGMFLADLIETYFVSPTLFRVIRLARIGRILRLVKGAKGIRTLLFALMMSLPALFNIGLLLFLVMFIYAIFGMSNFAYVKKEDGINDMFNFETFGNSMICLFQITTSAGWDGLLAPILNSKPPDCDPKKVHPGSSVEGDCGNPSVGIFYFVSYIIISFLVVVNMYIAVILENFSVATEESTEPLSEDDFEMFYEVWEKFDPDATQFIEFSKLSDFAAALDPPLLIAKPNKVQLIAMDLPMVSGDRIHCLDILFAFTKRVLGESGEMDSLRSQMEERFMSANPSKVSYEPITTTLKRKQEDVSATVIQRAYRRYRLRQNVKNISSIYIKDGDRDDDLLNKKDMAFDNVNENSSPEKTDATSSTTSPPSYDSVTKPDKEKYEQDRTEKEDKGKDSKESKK
hNav1.7, sequence (Q07699 whole entry partner, looked up): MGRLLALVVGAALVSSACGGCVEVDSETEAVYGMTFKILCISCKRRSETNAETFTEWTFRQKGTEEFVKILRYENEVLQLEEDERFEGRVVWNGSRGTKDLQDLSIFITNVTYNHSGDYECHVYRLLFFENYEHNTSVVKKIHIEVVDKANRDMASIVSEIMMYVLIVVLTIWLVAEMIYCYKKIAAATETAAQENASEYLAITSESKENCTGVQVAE

IC50 | Molecule
1200 nM | COC(=O)C12CC3CC(C1)C(Oc1cc(F)c(C(=O)NS(C)(=O)=O)cc1Cl)C(C3)C2 (single isomer, unassigned) [Example 450]
152 nM | CS(=O)(=O)NC(=O)c1ccc(OCC2CCC3(CC2)CC3)cc1F
138 nM | CC(C)[C@H]1CC[C@H](Oc2cc(F)c(C(=O)NS(=O)(=O)N(C)C)cc2Cl)CC1
205 nM | CS(=O)(=O)NC(=O)c1cc(Cl)c(OC2CC3CC2C2CCCC32)cc1F (centres unmarked)
250 nM | CNS(=O)(=O)NC(=O)c1cnc(OCC23CC4CC(CC(C4)C2)C3)c(C2CC2)c1 [Example 178]
210 nM | [2H]C1([2H])C([2H])([2H])C([2H])([2H])C([2H])(COc2cc(F)c(C(=O)NS(C)(=O)=O)cc2Cl)C([2H])([2H])C1([2H])[2H]
1640 nM | CS(=O)(=O)NC(=O)c1ccc(OCC23CC4CC(CC(F)(C4)C2)C3)cc1F
20 nM | CNS(=O)(=O)NC(=O)c1cc(C2CC2)c(OCC2(C(F)(F)F)CCCCC2)cc1F
190 nM | CN(C)S(=O)(=O)NC(=O)c1cc(Cl)c(COc2ccc3c(c2)OC(C)(C)CC3)cc1F
230 nM | CN(C)S(=O)(=O)NC(=O)c1cc(Cl)c(O[C@@H]2C[C@@H]3CC[C@@]2(C)C3(C)C)cc1F
9 nM | O=C(NS(=O)(=O)N1CCC1)c1cc(I)c(OCC23CC4CC(CC(C4)C2)C3)cc1F [Example 222]
10000 nM | CS(=O)(=O)NC(=O)c1cc(Cl)c(C(=O)NC23CC4CC(CC(C4)C2)C3)cc1F
1200 nM | CS(=O)(=O)NC(=O)c1ccc(C2C3CC4CC(C3)CC2C4)c(Cl)c1 (centres unmarked) [Example 180]
4 nM | CS(=O)(=O)NC(=O)c1cc(C2CC2)c(OCC2(F)C3CC4CC(C3)CC2C4)cc1F (centres unmarked)
10 nM | CCS(=O)(=O)NC(=O)c1cc(C2CC2)c(OCC2CN(C(c3ccccc3)c3ccccc3)C2)cc1F [Example 441, 4-((1-benzhydrylazetidin-3-yl)methoxy)-5-cyclopropyl-N-(ethylsulfonyl)-2-fluorobenzamide]
9 nM | CS(=O)(=O)NC(=O)c1ccc(OCC23CC4CC(CC(C4)C2)C3)c(C2CCC2)c1
1120 nM | CN(C)S(=O)(=O)NC(=O)c1cc(Cl)c(OC2CCC(C(F)(F)F)CC2)cc1F (centres unmarked) [Example 138]
29 nM | CS(=O)(=O)NC(=O)c1cc(Cl)c(OCC2CCC3(CC2)CC3)cc1F [Example 50]
80 nM | O=C(NS(=O)(=O)N1CCC1)c1cc(C2CC2)c(OCC23CC4CC(CC(CO)(C4)C2)C3)cc1F
181 nM | CC1(C)C(COc2ccc(C(=O)NS(C)(=O)=O)cc2Cl)C1(C)C
234 nM | CN(C)S(=O)(=O)NC(=O)c1cc(Cl)c(OCC23CC4CC(CC(F)(C4)C2)C3)cc1F [Example 89, 5-chloro-N-(dimethylsulfamoyl)-2-fluoro-4-[(3-fluoro-1-adamantyl)methoxy]benzamide]

IC50 | Molecule
3520 nM | CN(C)S(=O)(=O)NC(=O)c1cc(Cl)c(OC2CCC(C(F)(F)F)CC2)cc1F (centres unmarked)
130 nM | CNS(=O)(=O)NC(=O)c1cc(C2CC2)c(OCC2CCC(F)(F)CC2)cc1F
30 nM | O=C(NS(=O)(=O)N1CC(F)C1)c1cc(C2CC2)c(OCC2CCC(F)(F)CC2)cc1F [Example 226]
190 nM | CS(=O)(=O)NC(=O)c1cc(Cl)c(Oc2ccc3c(c2)CCCC3)cc1F
990 nM | COCCS(=O)(=O)NC(=O)c1cc(Cl)c(OCC2(C#N)C3CC4CC(C3)CC2C4)cc1F (centres unmarked)
1680 nM | CN(C)S(=O)(=O)NC(=O)c1cc(Cl)c(OCC2(F)CCCCC2)cc1F
9990 nM | CC(C)(C)OC(=O)N1CCCC(COc2cc(F)c(C(=O)NS(C)(=O)=O)cc2F)C1 (centres unmarked)
190 nM | CN(C)S(=O)(=O)NC(=O)c1cc(Cl)c(OC2C3CC4CC(C3)CC2C4)cc1F (centres unmarked)
49 nM | O=C(NS(=O)(=O)C1CC1)c1cc(Cl)c(OCC2CC3CC3C2)cc1F (centres unmarked) [Example 266]
40 nM | O=C(NS(=O)(=O)N1CC2(CCO2)C1)c1cc(C2CC2)c(OCC23CC4CC(CC(C4)C2)C3)cc1F
40 nM | CS(=O)(=O)NC(=O)c1cc(Cl)c(OC2C3CC4CC(C3)CC2C4)cc1F (centres unmarked) [Example 9]
22 nM | COCCCS(=O)(=O)NC(=O)c1cc(C2CC2)c(OCC23CC4CC(CC(C4)C2)C3)cc1F
100 nM | O=C(NS(=O)(=O)N1CCC1)c1ccc(OCC23CC4CC(CC(C4)C2)C3)c(C(F)(F)F)c1 [Example 53]
12 nM | CNS(=O)(=O)NC(=O)c1cc(C2CC2)c(OCC2CCCCC2)cc1F
94 nM | CC1(C)C(COc2cc(F)c(C(=O)NS(C)(=O)=O)cc2Cl)C1(C)C
80 nM | CS(=O)(=O)NC(=O)c1cc(Cl)c(OCC2CC3CCC2C3)cc1F (centres unmarked)
491 nM | CS(=O)(=O)NC(=O)c1cc(Cl)c(OC2CC3CCC2C3)cc1F (centres unmarked)
12 nM | COCCNS(=O)(=O)NC(=O)c1cc(C2CC2)c(OCC23CC4CC(CC(C4)C2)C3)cc1F
20 nM | O=C(NS(=O)(=O)C1CC1)c1cc(C2CC2)c(OCC2CCCC2)cc1F [Example 242]
5 nM | COCCS(=O)(=O)NC(=O)c1cc(C2CC2)c(OCC2C3CC4CC(C3)CC2C4)cc1F (centres unmarked)
50 nM | CS(=O)(=O)NC(=O)c1cc(Cl)c(OCC2(F)C3CC4CC(C3)CC2C4)cc1F (centres unmarked) [Example 176]

IC50 | Molecule
58 nM | CS(=O)(=O)NC(=O)c1ccc(OCC23CC4CC(CC(C4)C2)C3)c(C(F)(F)F)c1 [Example 62]
166 nM | CC1(C)CCC(Oc2cc(F)c(C(=O)NS(C)(=O)=O)cc2Cl)CC1
9 nM | O=C(NS(=O)(=O)N1CCC1)c1cc(C2CC2)c(OC[C@H]2CC[C@H](C(F)(F)F)CC2)cc1F [Example 436, N-(azetidin-1-ylsulfonyl)-5-cyclopropyl-2-fluoro-4-(((1r,4r)-4-(trifluoromethyl)cyclohexyl)methoxy)benzamide]
22 nM | CS(=O)(=O)NC(=O)c1cc(C2CC2)c(OCC2(C#N)C3CC4CC(C3)CC2C4)cc1F (centres unmarked)
60 nM | CC(=O)c1cc(C(=O)NS(=O)(=O)N2CCC2)c(F)cc1OCC12CC3CC(CC(C3)C1)C2
419 nM | CN(C)S(=O)(=O)NC(=O)c1cc(Cl)c(OC2C3CC4CC2CC(Cl)(C4)C3)cc1F (centres unmarked)
1700 nM | CNS(=O)(=O)NC(=O)c1ccc(C2C3CC4CC(C3)CC2C4)c(Cl)c1 (centres unmarked)
210 nM | CN(C)S(=O)(=O)NC(=O)c1cc(Cl)c(OCCC2CCCCCC2)cc1F
167 nM | CS(=O)(=O)NC(=O)c1cc(Cl)c(O[C@@H]2C[C@@H]3CC[C@H]2C3)cc1F
8 nM | CS(=O)(=O)NC(=O)c1cc(I)c(OCC23CC4CC(CC(C4)C2)C3)cc1F
6860 nM | CS(=O)(=O)NC(=O)c1cc(F)c(OCCC2CC2)cc1F
17 nM | CS(=O)(=O)NC(=O)c1cc(Cl)c(OCC2CCC3(CCC3)CC2)cc1F
51 nM | CN(C)S(=O)(=O)NC(=O)c1cc(Cl)c(OCC2C3CC4CC(C3)CC2C4)cc1F (centres unmarked)
106 nM | CN(C)S(=O)(=O)NC(=O)c1cc(Cl)c(COc2ccc3c(c2)CC(C)(C)CC3)cc1F
122 nM | CS(=O)(=O)NC(=O)c1cc(Cl)c(OCC2(C(F)(F)F)CCC2)cc1F
2.1 nM | CNS(=O)(=O)NC(=O)c1cc(C2CC2)c(OCC23CC4CC(CC(C4)C2)C3)cc1F
1 nM | CCS(=O)(=O)NC(=O)c1cc(C2CC2)c(OCC23CC4CC(CC(C4)C2)C3)cc1F
273 nM | CN(C)S(=O)(=O)NC(=O)c1cc(Cl)c(OC2CCC3(CCCC3)CC2)cc1F
29 nM | CS(=O)(=O)NC(=O)c1cc(Cl)c(OCCC23CC4CC(CC(C4)C2)C3)cc1F [Example 11]

Molecule | IC50
5-chloro-N—(N,N-dimethylsulfamoyl)-2-fluoro-4-((4-pentylbicyclo[2.2.2]octan-1-yl)-methoxy)benzamide [Example 91] | 1210 nM
CS(=O)(=O)NC(=O)c1cc(Cl)c(O[C@H]2C3CC4CC2C[C@](F)(C4)C3)cc1F | 120 nM
CC1(COc2cc(F)c(C(=O)NS(C)(=O)=O)cc2C2CC2)CCC(F)(F)CC1 | 18 nM
trans-5-cyclopropyl-N-(cyclopropylsulfonyl)-2-fluoro-4-((4-(trifluoromethyl)-cyclohexyl)methoxy)benzamide [Example 259] | 20 nM
5-chloro-4-((4,4-difluorocyclohexyl)methoxy)-2-fluoro-N-(methylsulfonyl)benzamide [Example 42] | 44 nM

Same assay, conditions: read-out: NaV1.7 395 Memb Binding (IC50)

Molecule | IC50
CS(=O)(=O)NC(=O)c1cc(F)c(OCC2CCCO2)cc1F (centres unmarked) | 10000 nM
5-cyclopropyl-4-((4,4-difluorocyclohexyl)methoxy)-2-fluoro-N-(N-methylsulfamoyl)benzamide [Example 214] | 900 nM
